Consider 1 molecule from article PMC4046262 (Scientific Reports, 2014).

A word on the Kd: it is the concentration at which binding is half-saturated. Read a high Kd as weaker binding.

The target in one test is AtCRY1 PHR (Arabidopsis thaliana, UniProt Q43125). As to the kind of experiment: biochemical.
Test [1] concerns the target full-length (wild-type) AtCRY1 (Arabidopsis thaliana, UniProt Q43125). The settings on record: FAD-bound full-length protein; details only in supplement.

Molecules are shown by their SMILES.

Chain of AtCRY1 PHR (Q43125 1-509): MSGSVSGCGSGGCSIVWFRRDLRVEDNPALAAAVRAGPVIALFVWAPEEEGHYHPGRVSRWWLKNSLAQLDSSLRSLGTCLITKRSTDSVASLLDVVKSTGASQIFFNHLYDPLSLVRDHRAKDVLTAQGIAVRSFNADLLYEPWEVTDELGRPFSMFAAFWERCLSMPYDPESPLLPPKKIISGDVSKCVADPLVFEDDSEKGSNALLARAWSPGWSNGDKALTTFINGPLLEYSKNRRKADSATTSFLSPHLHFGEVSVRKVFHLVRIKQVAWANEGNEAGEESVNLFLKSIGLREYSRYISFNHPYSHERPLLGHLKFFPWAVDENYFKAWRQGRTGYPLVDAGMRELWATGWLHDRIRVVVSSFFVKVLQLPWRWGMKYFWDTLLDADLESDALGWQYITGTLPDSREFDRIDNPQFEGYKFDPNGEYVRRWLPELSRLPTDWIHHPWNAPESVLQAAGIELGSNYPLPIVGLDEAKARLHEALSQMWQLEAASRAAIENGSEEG
Chain of full-length (wild-type) AtCRY1 (Q43125 whole entry): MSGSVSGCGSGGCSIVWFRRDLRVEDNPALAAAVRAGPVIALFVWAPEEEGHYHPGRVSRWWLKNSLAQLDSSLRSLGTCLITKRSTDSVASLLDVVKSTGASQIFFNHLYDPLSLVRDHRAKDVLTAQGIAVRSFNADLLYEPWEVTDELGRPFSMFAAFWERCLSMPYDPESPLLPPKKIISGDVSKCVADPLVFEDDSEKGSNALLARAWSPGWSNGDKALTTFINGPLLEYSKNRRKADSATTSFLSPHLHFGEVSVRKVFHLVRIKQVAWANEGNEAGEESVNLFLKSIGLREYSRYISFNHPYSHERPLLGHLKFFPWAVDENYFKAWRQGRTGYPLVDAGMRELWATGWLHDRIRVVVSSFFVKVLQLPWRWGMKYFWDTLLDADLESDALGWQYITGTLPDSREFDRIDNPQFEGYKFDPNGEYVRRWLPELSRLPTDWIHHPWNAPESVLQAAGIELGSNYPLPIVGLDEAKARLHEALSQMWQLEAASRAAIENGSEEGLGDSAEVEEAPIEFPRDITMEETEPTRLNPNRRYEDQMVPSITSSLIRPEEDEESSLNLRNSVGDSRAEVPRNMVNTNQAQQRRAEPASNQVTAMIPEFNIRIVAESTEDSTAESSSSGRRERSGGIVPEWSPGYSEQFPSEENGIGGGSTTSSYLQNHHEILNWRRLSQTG

Turning to `Nc1ncnc2c1ncn2[C@@H]1O[C@H](COP(=O)(O)OP(=O)(O)OP(=O)(O)O)[C@@H](O)[C@H]1O` [ATP], on AtCRY1 PHR, the equilibrium dissociation constant (Kd) stood at 1.4 ± 0.6 µM. In addition, the “UV-Vis and transient absorption with ATP (control experiments)” value in test [1] is given as “we have not found any significant differences in their photoreactions”.
